{
  "source": "patent US11964984B2",
  "about": "“TXNIP-TRX complex inhibitors and methods of using the same” (CITY OF HOPE, priority 2020, dated 2024)",
  "key": {"TNF-α mRNA [1]": {"system": "TNF-α mRNA", "assay": "TNF-α mRNA expression in murine MIN6 pancreatic beta cells (RT-PCR)", "format": "cell-based, mouse", "conditions": "25 mM glucose, 72 hours", "protocol": "FIGS. 4A-4B. […] MIN6 cells were cultured under 25 mM glucose with C30 and C38 at the indicated concentrations for 72 hours. Total RNA was prepared. RT-PCR was performed and data shown are the mean±SEM from triplicates. Statistical analysis was performed for each column vs. HG DMSO using one-way ANOVA: *p<0.0001. […] MIN6 cells were cultured under 25 mM glucose and treated with C30 and C38 at the indicated concentrations for 72 hours. Total RNA was prepared. RT-PCR was performed and data shown are the mean±SEM from triplicates. Statistical analysis was performed for each column vs. HG DMSO using one-way ANOVA: *p<0.0001.\nTo ascertain the relevance to pancreatic beta cells, we tested the effects of the lead compounds on key target gene mRNA levels in murine MIN6 pancreatic beta cells.\nRNA extraction and quantitative RT-PCR. RNA was extracted using the Direct-zol™ RNA MiniPrep Plus (Zymo Research). Reverse transcription of RNA samples into cDNA was performed using the GeneAmp RNA PCR Kit (Applied Biosystems), dNTP (from Roche Applied Science), Rnase inhibitor, MULV Reverse Transcriptase and Random hexamers reagent (all from Invitrogen). Diluted cDNA was quantified using real-time PCR performed with Power SYBR Green qPCR MasterMix (Applied Biosystem) and 7500 real-time PCR system (Applied Biosystems). The HPRT1 gene was used as an internal control."}, "TXNIP mRNA [2]": {"system": "TXNIP mRNA", "assay": "TXNIP expression in murine blood after oral dosing (RT-PCR)", "format": "in vivo, C57BL/6 mice", "conditions": "90 mg/kg oral gavage daily for five days, 96 hours after last dose", "protocol": "FIG. 16. Compounds C30 and C38 reduce TXNIP expression in murine blood. Twelve male C57BL/6 mice were divided into three groups (vehicle, C30 and C38). They received 90 mg/kg of the indicated compounds via oral gavage daily for five days. Animals were humanely euthanized 96 hours after administration of the last drug dose. Blood samples were collected for total RNA extraction. RT-PCR was performed in triplicate and data shown are the mean±SEM. Statistical analysis was performed using one-way ANOVA: *p<0.001.\nThe effects of compounds C30 and C38 at single high dose of 90 mg/kg. Twelve male mice were divided into three groups: 1) Control group (4 mice), 2) compound C30 (4 mice) and 3) compound C38 (4 mice). By oral gavage, animals were given 90 mg/kg of agent daily for 5 consecutive days (vehicle: 30% Solutol in saline). Mice were weighed every day during the treatment period. They were humanely euthanized 96 hours after the last dose. Tissues including the pancreas, liver and kidneys were collected (snap frozen in liquid nitrogen) for RNA extraction. […] Those given compound C30 lost ˜5% of body weight (FIG. 15).\nExpression of TXNIP in vivo in treated mice."}, "TXNIP mRNA [3]": {"system": "TXNIP mRNA", "assay": "TXNIP mRNA expression in murine RAW macrophages (RT-PCR)", "format": "cell-based, mouse", "conditions": "RAW264.7 cells, 25 mM glucose, 72 hours", "protocol": "(§1) FIGS. 3A-3B. FIG. 3A: C30 and C38 inhibited TXNIP mRNA expression in murine RAW macrophages. RAW cells were cultured under 25 mM glucose with various concentration of C30 and C38 as indicated for 72 hours. Total RNA was prepared. RT-PCR was performed and data shown are the mean±SEM from triplicates. Statistical analysis was performed for each column vs. high glucose (HG) DMSO using one-way ANOVA: *p<0.0001. FIG. 3B: Treatment with C30 and C38 decreased TNF-α mRNA expression in murine RAW macrophages. RAW cells were cultured under 25 mM glucose with various concentration of C30 and C38 as indicated for 72 hours. Total RNA was prepared. RT-PCR was performed and data shown are the mean±SEM from triplicates. Statistical analysis was performed for each column vs. HG DMSO using one-way ANOVA: *p<0.0001.\n(§2) Treatment of murine RAW macrophages with lead compounds C30 and C38 decreased TXNIP and TNF-α. We have also tested the effects of the lead compound in murine RAW264.7 (RAW) macrophages. As in human THP1 cells, C30 and C38 inhibited TXNIP and TNF-α mRNA expression in mouse RAW cells (FIGS. 3A-3B) showing they are also effective in mouse cells. […]\n(§3) RNA extraction and quantitative RT-PCR. […] Diluted cDNA was quantified using real-time PCR performed with Power SYBR Green qPCR MasterMix (Applied Biosystem) and 7500 real-time PCR system (Applied Biosystems). […]"}, "human islets": {"system": "human islets", "assay": "Human islet viability by FDA/PI staining under high glucose plus cytokines", "format": "cell-based", "conditions": "HG/cytokine cocktail, 24 hr, 5 uM compound", "protocol": "FIG. 19. Lead compounds enhance viability in human islets and protect them from apoptosis. 200 IEQ human islets (Hu 1183) were cultured in PIM(R)® medium containing NG (5.8 mM glucose) or HG (25 mM glucose), and mixture of TNFα (20 ng/ml), IL1β (20 ng/ml), and IFNγ (200 ng/ml) for 24 hours with or without C30 or C38. Islets were collected, washed with PBS once and stained with FDA and PI for 5 minutes and visualized with a Keyence All-in-One Fluorescence Microscope (BZ-X800E).\nLead compounds increase viability of human islets. […] Fluorescein diacetate/propidium iodide (FDA/PI) staining was employed to assess human islet viability."}, "TNF-α mRNA [4]": {"system": "TNF-α mRNA", "assay": "TNF-α mRNA expression in murine RAW macrophages (RT-PCR)", "format": "cell-based, mouse", "conditions": "RAW264.7 cells, 25 mM glucose, 72 hours", "protocol": "as §1, §2, §3"}, "TXNIP mRNA [5]": {"system": "TXNIP mRNA", "assay": "TXNIP mRNA in primary human pancreatic islets under 25 mM glucose (RT-PCR)", "format": "cell-based", "conditions": "human pancreatic islets (500 IEQ), 2.5 uM, 48 h", "protocol": "FIGS. 12A-12B. […] Human pancreatic islets (500 IEQ) were cultured with PIM(R) (Prodo Labs) medium under 25 mM glucose with 2.5 uM of the indicated compounds for 48 h. Total RNA was collected. RT-PCR was performed in triplicate and data shown are the mean±SEM. Statistical analysis was performed using one-way ANOVA: *p<0.0001. […] Human pancreatic islets (500 IEQ) were cultured with PIM(R) (Prodo Labs) under 25 mM glucose with 2.5 uM of the indicated compounds for 48 h. Total RNA was collected. RT-PCR was performed in triplicate and data shown are the mean+SEM. Statistical analysis was performed using one-way ANOVA: *p<0.0001.\nTesting lead compounds in human pancreatic islets. To further explore the effects of the lead compounds as possible therapies in diabetes, we conducted translational studies in primary human pancreatic islets (obtained from the City of Hope islet isolation center).\nRNA extraction and quantitative RT-PCR. RNA was extracted using the Direct-zol™ RNA MiniPrep Plus (Zymo Research). […] Diluted cDNA was quantified using real-time PCR performed with Power SYBR Green qPCR MasterMix (Applied Biosystem) and 7500 real-time PCR system (Applied Biosystems). […]"}},
  "data": [
    {"smiles": "COc1cc(N2CC[C@@H](c3ccc4ccccc4c3)[C@H](O)C2)nc(N)n1", "note": "[Compound C30]", "values": [
      {"measurement": "TNF-α mRNA expression", "setting": "TNF-α mRNA [1]", "result": "tended to increase TNF-α mRNA expression"},
      {"measurement": "RNA expression level of TXNIP in blood", "setting": "TXNIP mRNA [2]", "result": "reduced"},
      {"measurement": "TXNIP mRNA expression", "setting": "TXNIP mRNA [3]", "result": "inhibited"},
      {"measurement": "human islet viability (FDA/PI staining)", "setting": "human islets", "result": "protected human islets from death"},
      {"measurement": "TNF-α mRNA expression", "setting": "TNF-α mRNA [4]", "result": "inhibited"},
      {"measurement": "TXNIP mRNA", "setting": "TXNIP mRNA [5]", "result": "target TXNIP mRNA"}
    ]},
    {"smiles": "c1ccc(CCNc2ncnc3c2oc2ccccc23)cc1", "note": "[Compound C38]", "values": [
      {"measurement": "TNF-α mRNA expression", "setting": "TNF-α mRNA [1]", "result": "tended to increase TNF-α mRNA expression"},
      {"measurement": "RNA expression level of TXNIP in blood", "setting": "TXNIP mRNA [2]", "result": "reduced"},
      {"measurement": "TXNIP mRNA expression", "setting": "TXNIP mRNA [3]", "result": "inhibited"},
      {"measurement": "human islet viability (FDA/PI staining)", "setting": "human islets", "result": "protected human islets from death"},
      {"measurement": "TNF-α mRNA expression", "setting": "TNF-α mRNA [4]", "result": "inhibited"},
      {"measurement": "TXNIP mRNA", "setting": "TXNIP mRNA [5]", "result": "target TXNIP mRNA"}
    ]}
  ]
}
